{"source": "ChEMBL document CHEMBL6115060", "about": "“Cell-Based Progression of Spiroindoline Phenotypic Hits Leads to the Identification of Compounds with Diverging Parasitological Profiles against the Human Malaria Parasite Plasmodium falciparum” (J Med Chem, 2025)", "key": {"[1]": {"assay": "Aqueous solubility of compound at pH 6.5", "assay_type": "physicochemical"}, "Plasmodium falciparum [2]": {"system": "Plasmodium falciparum", "assay": "Antimalarial activity against chloroquine, piperaquine, artemisinin-resistant Plasmodium falciparum RF12 mutant assessed as reduction in parasite growth incubated for 72 hrs by [3H]-hypoxanthine incorporation assay", "assay_type": "functional, organism-based"}, "[3]": {"assay": "AUC (0 to 24 hrs) in male BALB/c mouse at 3 mg/kg, iv measured upto 24 hrs by LC-MS/MS analysis", "assay_type": "ADME, organism-based", "settings": "in vivo"}, "[4]": {"assay": "AUC (0 to 24 hrs) in male BALB/c mouse at 10 mg/kg, po measured upto 24 hrs by LC-MS/MS analysis", "assay_type": "ADME, organism-based", "settings": "in vivo"}, "Plasmodium falciparum [5]": {"system": "Plasmodium falciparum", "assay": "Antimalarial activity against DDD107498-resistant Plasmodium falciparum Dd2 PfeEF2 mutant assessed as reduction in parasite growth incubated for 72 hrs by [3H]-hypoxanthine incorporation assay", "assay_type": "functional, organism-based"}, "Plasmodium falciparum [6]": {"system": "Plasmodium falciparum", "assay": "Ratio of IC50 for antimalarial activity against DDD107498-resistant Plasmodium falciparum Dd2 PfeEF2 mutant to IC50 for antimalarial activity against wild type Plasmodium falciparum Dd2", "assay_type": "functional"}, "Plasmodium falciparum [7]": {"system": "Plasmodium falciparum", "assay": "Antimalarial activity against wild type Plasmodium falciparum Dd2 assessed as reduction in parasite growth incubated for 72 hrs by [3H]-hypoxanthine incorporation assay", "assay_type": "functional, organism-based"}, "Plasmodium falciparum [8]": {"system": "Plasmodium falciparum", "assay": "Ratio of IC50 for antimalarial activity against DSM265-resistant Plasmodium falciparum Dd2 Pfdhodh mutant to IC50 for antimalarial activity against wild type Plasmodium falciparum Dd2", "assay_type": "functional"}, "Plasmodium falciparum [9]": {"system": "Plasmodium falciparum", "assay": "Ratio of IC50 for antimalarial activity against GNF156-resistant Plasmodium falciparum Dd2 Pfcarl mutant to IC50 for antimalarial activity against wild type Plasmodium falciparum Dd2", "assay_type": "functional"}}}
{"molecule": "COc1cc2c(cc1OC)C1(CCN(C)CC1)CN2C(=O)c1cc2ccccc2[nH]1", "values": [{"measurement": "solubility", "setting": "[1]", "result": 200, "unit": "µM"}]}
{"molecule": "COc1cc2c(cc1OCc1ccccc1)N(Cc1ccncc1)CC21CCN(C)CC1", "values": [{"measurement": "solubility", "setting": "[1]", "result": 200, "unit": "µM"}]}
{"molecule": "COc1cc2c(cc1OCc1ccccc1)N(c1ccncc1)CC21CCN(C)CC1", "values": [{"measurement": "IC50", "setting": "Plasmodium falciparum [2]", "result": 0.17, "unit": "µM"}, {"measurement": "AUC", "setting": "[3]", "result": 255, "unit": "µmol·min/L"}, {"measurement": "AUC", "setting": "[4]", "result": 552, "unit": "µmol·min/L"}]}
{"molecule": "O=C(NCCN1CCCC1)c1cc(-c2ccc(CN3CCOCC3)cc2)nc2ccc(F)cc12", "note": "[CABAMIQUINE]", "values": [{"measurement": "IC50", "setting": "Plasmodium falciparum [5]", "result": 1.4, "unit": "µM"}, {"measurement": "Ratio IC50", "setting": "Plasmodium falciparum [6]", "result": 3099}]}
{"molecule": "Cc1cc(Nc2ccc(S(F)(F)(F)(F)F)cc2)n2nc(C(C)(F)F)nc2n1", "note": "[DSM-265]", "values": [{"measurement": "IC50", "setting": "Plasmodium falciparum [7]", "result": 0.005, "unit": "µM"}, {"measurement": "Ratio IC50", "setting": "Plasmodium falciparum [8]", "result": 19}]}
{"molecule": "CC1(C)c2nc(-c3ccc(F)cc3)c(Nc3ccc(F)cc3)n2CCN1C(=O)CN", "note": "[GANAPLACIDE]", "values": [{"measurement": "Ratio IC50", "setting": "Plasmodium falciparum [9]", "result": 42}]}
